Our source for the Ki values is patent publication US7446199B2, “Compositions useful as inhibitors of protein kinases” (Vertex Pharmaceuticals Incorporated, priority 2003, dated 2008).

In test [1] the target is GSK-3β, (AA 1-420) (Homo sapiens, UniProt P49841). The experiment in a line: GSK-3 inhibition assay, coupled enzyme system. It is filed as biochemical. Conditions: 20 μM ATP, 300 μM peptide, 20 nM GSK-3b, 30° C.; read-out: Ki values (GSK3). The method, boiled down:
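Pyruvate kinase/lactate dehydrogenase-coupled NADH assay with 20 nM enzyme, 20 μM ATP and 300 μM peptide in HEPES pH 7.5, 1.5% DMSO, 30° C. Compound (0.002–30 μM, 12-point) preincubated 10 min before ATP start; rates over 10 min gave Ki.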

The target in test [2] is T1, Aurora-2 (Homo sapiens, UniProt O14965).
T1 construct: addition of 10 μL of Aurora-2 stock solution to give a final concentration of 70 nM
T1 sequence (O14965 1-403): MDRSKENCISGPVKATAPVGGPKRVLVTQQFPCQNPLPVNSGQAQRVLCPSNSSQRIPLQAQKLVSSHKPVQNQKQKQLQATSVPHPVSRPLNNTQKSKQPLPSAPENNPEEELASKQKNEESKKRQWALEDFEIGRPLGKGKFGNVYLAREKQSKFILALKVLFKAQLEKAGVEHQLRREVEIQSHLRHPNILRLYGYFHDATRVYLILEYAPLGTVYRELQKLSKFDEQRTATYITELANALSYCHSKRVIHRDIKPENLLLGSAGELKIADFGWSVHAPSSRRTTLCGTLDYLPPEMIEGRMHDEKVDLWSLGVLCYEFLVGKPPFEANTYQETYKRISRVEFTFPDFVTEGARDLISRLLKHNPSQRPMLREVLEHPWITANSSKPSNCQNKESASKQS
Nature of the test: Inhibition of AUR-2, coupled enzyme assay. It is filed as biochemical. Conditions: 70 nM Aurora-2, 800 μM peptide LRRASLG, 30° C. On the procedure:
Compounds are screened in the following manner for their ability to inhibit Aurora-2 using a standard coupled enzyme assay (Fox et al. (1998) Protein Sci 7, 2249). To an assay stock buffer solution containing 0.1M HEPES 7.5, 10 mM MgCl2, 1 mM DTT, 25 mM NaCl, 2.5 mM phosphoenolpyruvate, […], […], […], and 800 μM peptide (LRRASLG, American Peptide, Sunnyvale, Calif.) is added a DMSO solution of a compound of the present invention to a final concentration of 30 μM. The resulting mixture is incubated at 30° C. for 10 min. The reaction was initiated by the addition of 10 μL of Aurora-2 stock solution to give a final concentration of 70 nM in the assay. The rates of reaction are obtained by monitoring absorbance at 340 nm over a 5 minute read time at 30° C. using a BioRad Ultramark plate reader (Hercules, Calif.). The Ki values are determined from the rate data as a function of inhibitor concentration.

For orientation: Ki means a dissociation constant, usually derived from enzyme kinetics or from competition with a known ligand.

Chain of GSK-3β, (AA 1-420) (P49841 whole entry, the tested form may be a part): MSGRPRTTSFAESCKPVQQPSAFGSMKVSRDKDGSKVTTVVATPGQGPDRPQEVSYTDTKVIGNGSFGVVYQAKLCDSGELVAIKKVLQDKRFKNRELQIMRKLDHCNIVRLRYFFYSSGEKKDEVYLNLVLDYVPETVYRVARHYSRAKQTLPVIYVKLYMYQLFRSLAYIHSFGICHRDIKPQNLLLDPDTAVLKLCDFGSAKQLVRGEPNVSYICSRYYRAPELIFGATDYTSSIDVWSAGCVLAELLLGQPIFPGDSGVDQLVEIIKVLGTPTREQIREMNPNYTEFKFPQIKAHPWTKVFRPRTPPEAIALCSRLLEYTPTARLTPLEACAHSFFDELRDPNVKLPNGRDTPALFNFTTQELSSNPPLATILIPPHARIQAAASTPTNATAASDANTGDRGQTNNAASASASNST

For `Cc1noc(-c2c[nH]c3ncccc23)c1-c1cccc(F)c1F` [Compound 134, 3-[4-(2,3-Difluoro-phenyl)-3-methyl-isoxazol-5-yl]-1H-pyrrolo[2,3-b]pyridine], the Ki in test [1] and in test [2] was 0.2 to 1 µM throughout.

Take `CC(=O)Nc1ccc(-c2cnc3[nH]cc(-c4oncc4-c4cccc(F)c4F)c3c2)cc1` [Compound 95, N-(4-{3-[4-(2,3-Difluoro-phenyl)-isoxazol-5-yl]-1H-pyrrolo[2,3-b]pyridin-5-yl}-phenyl)-acetamide]: the Ki in test [1] was 1 to 12.5 µM; in test [2], under 0.2 µM.

As for `CN1CCN(Cc2ccc(-c3cnc4[nH]cc(-c5oncc5-c5cccc(F)c5F)c4c3)cc2)CC1` [Compound 94, 3-[4-(2,3-Difluoro-phenyl)-isoxazol-5-yl]-5-[4-(4-methyl-piperazin-1-ylmethyl)-phenyl]-1H-pyrrolo[2,3-b]pyridine], the Ki in test [1] is 0.2 to 1 µM; in test [2] it was under 0.2 µM.

`Fc1c(Cl)cccc1-c1cnoc1-c1c[nH]c2ncccc12` [Compound 42, 3-[4-(3-Chloro-2-fluoro-phenyl)-isoxazol-5-yl]-1H-pyrrolo[2,3-b]pyridine]: the Ki in test [1] was 1 to 12.5 µM; in test [2] it was 0.2 to 1 µM.

For the compound `COc1cncc(-c2cnc3[nH]cc(-c4oncc4-c4cccc(F)c4F)c3c2)c1` [Compound 96, 3-[4-(2,3-Difluoro-phenyl)-isoxazol-5-yl]-5-(5-methoxy-pyridin-3-yl)-1H-pyrrolo[2,3-b]pyridine], the figures for the Ki in test [1] and in test [2] were 0.2 to 1 µM and under 0.2 µM, respectively.

In the case of `Fc1cccc(-c2cnoc2-c2c[nH]c3ncc(-c4ccccc4)cc23)c1F` [Compound 58, 3-[4-(2,3-Difluoro-phenyl)-isoxazol-5-yl]-5-phenyl-1H-pyrrolo[2,3-b]pyridine], the Ki in test [1] and in test [2] was 0.2 to 1 µM in each case.

For `Fc1cccc(-c2cnoc2-c2c[nH]c3ncc(-c4ccc(CN5CCOCC5)cc4)cc23)c1F` [Compound 92, 3-[4-(2,3-Difluoro-phenyl)-isoxazol-5-yl]-5-(4-morpholin-4-ylmethyl-phenyl)-1H-pyrrolo[2,3-b]pyridine], the Ki is 0.2 to 1 µM in test [1] and under 0.2 µM in test [2].

Regarding `Nc1cccc(-c2cnc3[nH]cc(-c4oncc4-c4cccc(F)c4F)c3c2)c1` [Compound 86, 3-{3-[4-(2,3-Difluoro-phenyl)-isoxazol-5-yl]-1H-pyrrolo [2,3-b]pyridin-5-yl}-phenylamine], the Ki in test [1] and in test [2] was under 0.2 µM each time.

As for `Oc1cnc2[nH]cc(-c3oncc3-c3cccc(Cl)c3Cl)c2c1` [Compound 48, 3-[4-(2,3-Dichloro-phenyl)-isoxazol-5-yl]-1H-pyrrolo[2,3-b]pyridin-5-ol], the Ki in test [1] fell in the range of 1 to 12.5 µM; in test [2], 0.2 to 1 µM.

In the case of `O=c1[nH]ccc2c(-c3oncc3-c3cccc(F)c3F)c[nH]c12` [Compound 145, 3-[4-(2,3-Difluoro-phenyl)-isoxazol-5-yl]-1,6-dihydro-pyrrolo[2,3-c]pyridin-7-one], the Ki in test [1] and in test [2] was 0.2 to 1 µM throughout.

On to `CN1CCN(c2ccc(-c3cnc4[nH]cc(-c5oncc5-c5cccc(F)c5F)c4c3)cn2)CC1` [Compound 71, 3-[4-(2,3-Difluoro-phenyl)-isoxazol-5-yl]-5-[6-(4-methyl-piperazin-1-yl)-pyridin-3-yl]-1H-pyrrolo[2,3-b]pyridine], for which the Ki in test [1] is 0.2 to 1 µM; in test [2] it was under 0.2 µM.

Turning to `Fc1cccc(-c2cnoc2-c2c[nH]c3ncc(Br)cc23)c1F` [Compound 37, 5-Bromo-3-[4-(2,3-difluoro-phenyl)-isoxazol-5-yl]-1H-pyrrolo[2,3-b]pyridine], the Ki in test [1] is 0.2 to 1 µM; in test [2], under 0.2 µM.

`COc1cnc2[nH]cc(-c3oncc3-c3cccc(Cl)c3Cl)c2c1` [Compound 49, 3-[4-(2,3-Dichloro-phenyl)-isoxazol-5-yl]-5-methoxy-1H-pyrrolo[2,3-b]pyridine]: the Ki is 0.2 to 1 µM in test [1] and under 0.2 µM in test [2].

Turning to `Nc1ccc(-c2cnc3[nH]cc(-c4oncc4-c4cccc(F)c4F)c3c2)cc1` [Compound 90, 4-{3-[4-(2,3-Difluoro-phenyl)-isoxazol-5-yl]-1H-pyrrolo [2,3-b]pyridin-5-yl}-phenylamine], the Ki in test [1] and in test [2] was under 0.2 µM in each case.

`Clc1cccc(-c2cnoc2-c2c[nH]c3ncc(-c4cccnc4)cc23)c1Cl` [Compound 99, 3-[4-(2,3-Dichloro-phenyl)-isoxazol-5-yl]-5-pyridin-3-yl-1H-pyrrolo[2,3-b]pyridine]: the Ki in test [1] and in test [2] was under 0.2 µM throughout.

As to `Nc1ccnc(-c2cnc3[nH]cc(-c4oncc4-c4cccc(F)c4F)c3c2)c1` [Compound 83, 2-{3-[4-(2,3-Difluoro-phenyl)-isoxazol-5-yl]-1H-pyrrolo [2,3-b]pyridin-5-yl}-pyridin-4-ylamine], the Ki in test [1] and in test [2] was 0.2 to 1 µM throughout.

As to `CN1CCN(c2ccc(-c3cnc4[nH]cc(-c5oncc5-c5cccc(F)c5F)c4c3)cc2)CC1` [Compound 70, 3-[4-(2,3-Difluoro-phenyl)-isoxazol-5-yl]-5-[4-(4-methyl-piperazin-1-yl)-phenyl]-1H-pyrrolo[2,3-b]pyridine methanesulfonate], the Ki in test [1] and in test [2] was under 0.2 µM each time.

In the case of `CN(C)Cc1ccnc(-c2cnc3[nH]cc(-c4oncc4-c4cccc(F)c4F)c3c2)c1` [Compound 82, (2-{3-[4-(2,3-Difluoro-phenyl)-isoxazol-5-yl]-1H-pyrrolo[2,3-b]pyridin-5-yl}-pyridin-4-ylmethyl)-dimethyl-amine], the Ki in test [1] is under 0.2 µM; in test [2], 0.2 to 1 µM.

On to `Fc1cccc(-c2cnoc2-c2c[nH]c3ncc(-c4cccnc4)cc23)c1F` [Compound 59, 3-[4-(2,3-Difluoro-phenyl)-isoxazol-5-yl]-5-pyridin-3-yl-1H-pyrrolo[2,3-b]pyridine], for which the results for the Ki in test [1] and in test [2] were 0.2 to 1 µM and under 0.2 µM, respectively.

Turning to `CC(=O)Nc1cccc(-c2cnc3[nH]cc(-c4oncc4-c4cccc(F)c4F)c3c2)c1` [Compound 65, N-(3-{3-[4-(2,3-Difluoro-phenyl)-isoxazol-5-yl]-1H-pyrrolo[2,3-b]pyridin-5-yl}-phenyl)-acetamide], the Ki in test [1] was 0.2 to 1 µM; in test [2], under 0.2 µM.

As for `CS(=O)(=O)Nc1ccc(-c2cnc3[nH]cc(-c4oncc4-c4cccc(F)c4F)c3c2)cc1` [Compound 98, N-(4-{3-[4-(2,3-Difluoro-phenyl)-isoxazol-5-yl]-1H-pyrrolo[2,3-b]pyridin-5-yl}-phenyl)-methane sulfonamide], the Ki in test [1] and in test [2] was under 0.2 µM each time.

With `Fc1cccc(-c2cnoc2-c2c[nH]c3ncccc23)c1F` [Compound 1, 3-[4-(2,3-Difluoro-phenyl)-isoxazol-5-yl]-1H-pyrrolo[2,3-b]pyridine], the Ki in test [1] fell in the range of 1 to 12.5 µM; in test [2] it was 0.2 to 1 µM.
